The half-life is the time needed for the level to fall by half in the phase considered. The low end stands for fast loss, the high end for slow loss.

This data set in a line: Half life measured in vitro for its stability in human blood. It is filed as ADME, tissue-based.
Regarding `CCOc1cccc2c1C(=O)N(COC(=O)c1c(Cl)cccc1Cl)S2(=O)=O`, the half-life stood at 10 min.

In turn, `CCOc1cc(OCC)c2c(c1)S(=O)(=O)N(COC(=O)c1c(Cl)cccc1Cl)C2=O` came in with a half-life of 98 min. Compared with the last molecule, the half-life is about 9.8-fold higher. `COc1cc(OC)c2c(c1)S(=O)(=O)N(COC(=O)c1c(Cl)cccc1Cl)C2=O` had a half-life of 30 min. `COc1ccc2c(c1)S(=O)(=O)N(COC(=O)c1c(Cl)cccc1Cl)C2=O` displayed a half-life of 5 min.

For the origin of these results see ChEMBL document CHEMBL1128630, “Alkoxy substituted benzisothiazolone (BIT) derivatives: potent inhibitors of human leukocyte elastase” (Bioorg Med Chem Lett, 1995).
